System: P12-Ichikawa
Test: cell viability relative to DMSO control; higher = less cytotoxic
Details: 48 h
Procedure, shortened: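 Viability, reported as a per-plate percentage of DMSO wells with cell-free wells as background, came from CellTiter-Glo One luminescence. Reading took place after 48 h at 37°C. Before that, NOMO1 or SEM (500 cells/well) or P12-Ichikawa (1000 cells/well) leukemia cells, adapted for at least four passages in each medium, were seeded in 1536-well plates (5 μl) and pin-dosed with library compounds in DMSO, 47 μM to 0.79 nM over 11 threefold points.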

[1] = HPLM + 10% dialyzed FBS, 0.000781 µM
[2] = HPLM + 10% dialyzed FBS, 0.00234 µM
[3] = HPLM + 10% dialyzed FBS, 0.00702 µM
[4] = HPLM + 10% dialyzed FBS, 0.0211 µM
[5] = HPLM + 10% dialyzed FBS, 0.0632 µM
[6] = HPLM + 10% dialyzed FBS, 0.19 µM
[7] = HPLM + 10% dialyzed FBS, 0.569 µM
[8] = HPLM + 10% dialyzed FBS, 1.71 µM
[9] = HPLM + 10% dialyzed FBS, 5.12 µM
[10] = HPLM + 10% dialyzed FBS, 15.4 µM
[11] = HPLM + 10% dialyzed FBS, 46.1 µM
[12] = RPMI 5 mM glucose + 10% FBS, 0.000781 µM
[13] = RPMI 5 mM glucose + 10% FBS, 0.00234 µM
[14] = RPMI 5 mM glucose + 10% FBS, 0.00702 µM
[15] = RPMI 5 mM glucose + 10% FBS, 0.0211 µM
[16] = RPMI 5 mM glucose + 10% FBS, 0.0632 µM
[17] = RPMI 5 mM glucose + 10% FBS, 0.19 µM
[18] = RPMI 5 mM glucose + 10% FBS, 0.569 µM
[19] = RPMI 5 mM glucose + 10% FBS, 1.71 µM
[20] = RPMI 5 mM glucose + 10% FBS, 5.12 µM
[21] = RPMI 5 mM glucose + 10% FBS, 15.4 µM
[22] = RPMI 5 mM glucose + 10% FBS, 46.1 µM
[23] = RPMI 5 mM glucose + 10% dialyzed FBS, 0.000781 µM
[24] = RPMI 5 mM glucose + 10% dialyzed FBS, 0.00234 µM
[25] = RPMI 5 mM glucose + 10% dialyzed FBS, 0.00702 µM
[26] = RPMI 5 mM glucose + 10% dialyzed FBS, 0.0211 µM
[27] = RPMI 5 mM glucose + 10% dialyzed FBS, 0.0632 µM
[28] = RPMI 5 mM glucose + 10% dialyzed FBS, 0.19 µM
[29] = RPMI 5 mM glucose + 10% dialyzed FBS, 0.569 µM
[30] = RPMI 5 mM glucose + 10% dialyzed FBS, 1.71 µM
[31] = RPMI 5 mM glucose + 10% dialyzed FBS, 5.12 µM
[32] = RPMI 5 mM glucose + 10% dialyzed FBS, 15.4 µM
[33] = RPMI 5 mM glucose + 10% dialyzed FBS, 46.1 µM

Cc1cn([C@H]2C=C[C@@H](CO)O2)c(=O)[nH]c1=O
cell viability [1]: 104% | cell viability [2]: 114% | cell viability [3]: 108% | cell viability [4]: 108% | cell viability [5]: 112% | cell viability [6]: 103% | cell viability [7]: 119% | cell viability [8]: 103% | cell viability [9]: 115% | cell viability [10]: 116% | cell viability [11]: 108% | cell viability [12]: 100% | cell viability [13]: 111% | cell viability [14]: 107% | cell viability [15]: 108% | cell viability [16]: 105% | cell viability [17]: 104% | cell viability [18]: 112% | cell viability [19]: 115% | cell viability [20]: 108% | cell viability [21]: 110% | cell viability [22]: 98% | cell viability [23]: 99.4% | cell viability [24]: 101% | cell viability [25]: 110% | cell viability [26]: 105% | cell viability [27]: 103% | cell viability [28]: 101% | cell viability [29]: 112% | cell viability [30]: 108% | cell viability [31]: 99.2% | cell viability [32]: 107% | cell viability [33]: 92.8%

[O-]C(=O)C/1=N/C(=O)NC(=O)N1
cell viability [1]: 99% | cell viability [2]: 97% | cell viability [3]: 98.3% | cell viability [4]: 93.3% | cell viability [5]: 102% | cell viability [6]: 98% | cell viability [7]: 90.1% | cell viability [8]: 91.2% | cell viability [9]: 81.8% | cell viability [10]: 80.9% | cell viability [11]: 83.4% | cell viability [12]: 92.2% | cell viability [13]: 97.2% | cell viability [14]: 90% | cell viability [15]: 96.6% | cell viability [16]: 90.2% | cell viability [17]: 92.3% | cell viability [18]: 87.6% | cell viability [19]: 91.8% | cell viability [20]: 82.6% | cell viability [21]: 82.1% | cell viability [22]: 80.2% | cell viability [23]: 90.6% | cell viability [24]: 89.4% | cell viability [25]: 88.4% | cell viability [26]: 95.8% | cell viability [27]: 92.8% | cell viability [28]: 81.8% | cell viability [29]: 85.3% | cell viability [30]: 93.2% | cell viability [31]: 88% | cell viability [32]: 82.4% | cell viability [33]: 76.5%

CCOc1cc2ncc(C#N)c(Nc3ccc(F)c(Cl)c3)c2cc1NC(=O)/C=C/CN(C)C
cell viability [1]: 118% | cell viability [2]: 116% | cell viability [3]: 131% | cell viability [4]: 122% | cell viability [5]: 116% | cell viability [6]: 71.7% | cell viability [7]: 80.9% | cell viability [8]: 61.1% | cell viability [9]: 41.6% | cell viability [10]: 21.1% | cell viability [11]: 2.69% | cell viability [12]: 121% | cell viability [13]: 120% | cell viability [14]: 123% | cell viability [15]: 128% | cell viability [16]: 121% | cell viability [17]: 95.2% | cell viability [18]: 85.3% | cell viability [19]: 71.9% | cell viability [20]: 57.6% | cell viability [21]: 26.3% | cell viability [22]: 5.42%

Reference: the supplement of paper PMC11451515
